Experimental data published in patent US20110171279A1, “POLYETHYLENIMINE BIOCIDES” (NDSU RESEARCH FOUNDATION, priority 2009, published 2011).
Read-outs that look alike come from different tables or passages of the source.

Assays:
Navicula incerta = assay: Growth reduction / MIC test against Navicula incerta in Guillard's F/2 medium, chlorophyll fluorescence; assay type: cell-based; conditions: Table 12; read-out: N. incerta MIC
[1] = tested on: Staphylococcus epidermidis; assay: Growth reduction / MIC test against Staphylococcus epidermidis in tryptic soy broth, absorbance 600 nm; assay type: cell-based; conditions: for Percent reduction in growth of Staphylococcus epidermidis: Table 2; for MIC: Staphylococcus epidermidis, read-out: S. epidermidis MIC
Protocol: The antimicrobial properties of the Formulations were determined by measuring the minimum inhibitory concentration (MIC) or by using an adaptation of the MIC test. […] Additional details of the MIC method can be found at Andrews, J. M., Journal of Antimicrobial Chemotherapy (2001) 48, 5-16, incorporated herein by reference in its entirety.
In accordance with the MIC test, working solutions for each Formulation were prepared by dissolving 100 mg of each Formulation in 10 mL of methanol (Sigma-Aldrich) to generate a 10 mg/mL solution. Next, 10 ml of tryptic soy broth was spiked with 200 μL of the mg/mL Formulation solution to achieve a final concentration of 0.2 mg/mL.
0.2 mL of each concentration of each Formulation (spiked with S. epidermidis) was added in triplicate to a 96-well plate. Additionally, 0.2 mL of tryptic soy broth without any S. epidermidis or Formulation and 0.2 mL of tryptic soy broth with S. epidermidis, but no Formulations, served as negative and positive growth controls, respectively. Plates were then placed in an incubator, at 37° C. for 24 hrs (with shaking), and then measured for growth by taking absorbance measurements at 600 nm with a multi-well plate spectrophotometer (Synergy HT microplate reader, BioTek Instruments, Winooski, Vt.). The efficacy of each Formulation was measured by determining the percent reduction in bacterial growth as a function of Formulation concentration.
For comparison purposes a benzylpiperidino biocide (“Reference 1”) was prepared using ETCS and synthetic methods similar to those described in U.S. Pat. No. 5,036,077, issued Jul. 30, 1991, and incorporated by reference in its entirety. To make Reference 1, 3.9 g of ETCS and 2 g of 4-benzylpiperidine were reacted in 30 mL of methanol. The mixture was heated at 65° C. for 48 hours. Reaction completion was confirmed by ^1H NMR, ^13C NMR, HMQC (2D) NMR and elemental analysis. The antimicrobial activity of Formulations 69-77 and Reference 1 toward S. epidermidis was measured by determining the percent reduction in bacterial growth as a function of concentration, as was done above in EXAMPLE 3.

[2] = Formulation Concentration 0.78125 μg/mL
[3] = Formulation Concentration 1.5625 μg/mL
[4] = Formulation Concentration 3.125 μg/mL
[5] = Formulation Concentration 6.25 μg/mL
[6] = Formulation Concentration 12.5 μg/mL
[7] = Formulation Concentration 25 μg/mL
[8] = Formulation Concentration 50 μg/mL
[9] = Formulation Concentration 100 μg/mL

MIC (Navicula incerta) [µg/mL]	MIC ([1]; Table 12) [µg/mL]	Compound	Percent reduction in growth of Staphylococcus epidermidis [1, 2] [%]	Percent reduction in growth of Staphylococcus epidermidis [1, 3] [%]	Percent reduction in growth of Staphylococcus epidermidis [1, 4] [%]	Percent reduction in growth of Staphylococcus epidermidis [1, 5] [%]	Percent reduction in growth of Staphylococcus epidermidis [1, 6] [%]	Percent reduction in growth of Staphylococcus epidermidis [1, 7] [%]	Percent reduction in growth of Staphylococcus epidermidis [1, 8] [%]	Percent reduction in growth of Staphylococcus epidermidis [1, 9] [%]	MIC [1] [µg/mL]
> 100	> 100	Clc1ccc(Oc2ccc(Cl)cc2OCC2CO2)c(Cl)c1 (stereo not shown) [ETCS, 2-((5-chloro-2-(2,4-dichlorophenoxy)phenoxy)methyl)oxirane]	0.00	9.43	8.30	16.36	18.64	17.39	22.16	9.55	–
–	–	Oc1cc(Cl)ccc1Oc1ccc(Cl)cc1Cl [TCS, triclosan]	81.36	86.70	92.70	92.96	93.09	92.83	93.09	93.35	0.781
